This is an account of results in patent EP0333351A2, “Platinum coordination compounds” (JOHNSON MATTHEY PUBLIC LIMITED COMPANY, priority 1988, dated 1989).

What is called LD50 is the dose at which mortality reaches 50%.

The subject of this data set is ADJ/PC6 tumour. The experiment in a line: Antitumour activity against the ADJ/PC6 tumour in mice, intraperitoneal route (LD50, ED90, T.I.). The data set is classed as in vivo. The following applies: for ED90: Table 1, ADJ/PC6 tumour in mice; for LD50: Table 1, mice. On the procedure: The invention will now be described by way of example only. A selection of compounds according to the invention were prepared by the above-described method, and were characterised by elemental analysis and infra red spectroscopy. The compounds were compared against known compounds and against each other for activity against the ADJ/PC6 tumour in mice, when given by the intraperitoneal route and the results are tabulated below.

Consider `N.N.[Cl][Pt]([Cl])([Cl])[Cl]` [Comparison A], for which the ED90 came out at 3.4 mg/kg and the LD50 was 18 mg/kg.

Turning to `NC1CCCCC1.NC1CCCCC1.[Cl][Pt]([Cl])([Cl])[Cl]` [Comparison B], the ED90 turned out to be 10 mg/kg and the median lethal dose (LD50) came to 190 mg/kg.
